These results are taken from patent US20130072495A1, “FUSED BICYCLIC KINASE INHIBITORS” (OSI Pharmaceuticals, LLC, priority 2010, published 2013).

What all share (assay type): cell-based
The target of one experiment is T1, MET (Homo sapiens, UniProt P08581).
T1 construct: endogenous in cells; host or cells: MKN45
Nature of the experiment: MET cell mechanistic assay (MKN45), phosphorylated MET levels. Particulars: MKN45 cell line, four hours incubation, at least duplicate experiments, read-out: MET mech IC50. The method, then: The cellular activity of the compounds of the present invention against MET may be determined by the following procedure. MKN45 cells were plated in Falcon 3072 96-well plates in growth media (RPMI, 10% FBS, 1% L-glutamine) at a density of 5000 cells/well and incubated at 37° C., 5% CO2 overnight. The following day, one-tenth volume of a 10× concentration of compounds was added to the wells in a 6-point dilution series. The dilutions series was composed of an initial […] in DMSO, followed by a […] in growth media, for a final DMSO concentration on cells of 0.5%. Control wells were treated with 0.5% DMSO. The typical range of dilution was 10 μM to 3 nM. Once compound was added to the cells, plates were incubated for four hours at 37° C., 5% CO2. Plates were then washed in PBS, and lysed in triton-based lysis buffer. Lysates were transferred to a precoated capture plate made by Biosource (Cat # KHO0281). The phosphorylated MET levels were measured by incubating with a rabbit polyclonal antibody against phosphorylated MET ([pYpYpY1230/1234/1235]) followed by an anti-rabbit antibody conjugated to HRP. Signal was measured on a Wallac Victor plate reader at 450 nm. The DMSO signal of the control wells was defined as 100% and the percent of inhibition of phosphorylated MET was expressed as percent of control. IC50 values were determined from the percent of control data using a standard four-parameter model.
The IC50 values of exemplary compounds of the present invention determined in a MET cell mechanistic assay using the MKN45 cell line according to the procedures described herein in at least duplicate experiments are abbreviated as follows and are shown in Table 2: A, IC50≦0.1 μM; B, 0.1 μM<IC50≦0.5 μM; C, 0.5 μM<IC50≦2 μM; D, IC50>2 μM; ND, not determined. The Example # of Table 2 corresponds to the compound example number as illustrated in the Experimental section above.

The test system of the next experiment is MKN45 cells. Nature of the experiment: MKN45 cell proliferation assay (CellTiter-Glo). Particulars: Homo sapiens, MKN-45, 72 h; MKN45 cell line, 3 days incubation, at least duplicate experiments; read-out: Prolif. IC50. The method, then:
The effect of inhibitors on the proliferation of MKN45 cells was determined using the following protocol. MKN45 cells were plated in Corning 3917 96-well white tissue culture treated plates in growth medium (RPMI, 10% FCS) at a density of 5000 cells/well in a total volume of 135 μL and incubated at 37° C., 5% CO2, 95% humidity overnight. The following day, one-tenth volume of a 10× concentration of compounds was added to the wells in an 8-point dilution series. The dilution series was composed of an initial 1:5 dilution of a 10 mM stock of compound in DMSO, followed by serial 1:4 dilutions in DMSO, then a 1:20 dilution in growth medium prior to the 1:10 dilution into the cell plate. Final DMSO concentration on the cells was 0.1%, there were control wells treated with both 0.1% DMSO and no DMSO. The typical dilution range is 10 μM to 0.6 nM. Once the compound was added to the cells, plates were incubated for 3 days at 37° C., 5% CO2 at 95% humidity. On the third day, after allowing all cells and reagents to come to room temperature, 25 μL of CellTiter-Glo reagent (Promega # G7573) was added to the wells. Plates were shaken on a platform for 10 minutes prior to reading luminescence for 0.1 seconds. The signal of the control wells was taken as 100% growth and growth inhibition was expressed as percent of control. IC50 values were determined from the percent of control data using a standard four-parameter model.
The IC50 values of exemplary compounds of the present invention determined in a cell proliferation assay using the MKN45 cell line according to the procedures described herein in at least duplicate experiments are abbreviated as follows and are shown in Table 1: A, IC50≦0.1 μM; B, 0.1 μM<IC50≦0.5 μM; C, 0.5 μM<IC50≦2 μM; D, IC50>2 μM; ND, not determined. The Example # of Table 1 corresponds to the compound example number as illustrated in the Experimental section above.
Treatment of this cell line with a selective MET inhibitor led to induction of apoptosis and inhibition of proliferation, whereas non-MET-amplified cell lines were not affected. Smolen et al., Proc. Natl. Acad. Sci. USA, 103(7):2316-2321 (2006). This cell line is thus “driven” by MET, and antiproliferative effects correlate very well with the inhibition of MET phosphorylation so that the cell proliferation IC50 values can be used as surrogate for the MET cell mechanistic IC50 values. Under the assay conditions described herein, the IC50 values correlate nearly 1:1.
A general note: Cellular ATP, detected with luciferase, serves as a proxy for viable cell number.

Another experiment concerns the target T2, sfRON (Homo sapiens, UniProt Q04912).
T2 construct: expressed in transfected cells; host or cells: HeLa (transient transfection, Lipofectamine-2000, sfRON-pcDNA plasmid)
T2 sequence (Q04912 913-1400 limits assumed): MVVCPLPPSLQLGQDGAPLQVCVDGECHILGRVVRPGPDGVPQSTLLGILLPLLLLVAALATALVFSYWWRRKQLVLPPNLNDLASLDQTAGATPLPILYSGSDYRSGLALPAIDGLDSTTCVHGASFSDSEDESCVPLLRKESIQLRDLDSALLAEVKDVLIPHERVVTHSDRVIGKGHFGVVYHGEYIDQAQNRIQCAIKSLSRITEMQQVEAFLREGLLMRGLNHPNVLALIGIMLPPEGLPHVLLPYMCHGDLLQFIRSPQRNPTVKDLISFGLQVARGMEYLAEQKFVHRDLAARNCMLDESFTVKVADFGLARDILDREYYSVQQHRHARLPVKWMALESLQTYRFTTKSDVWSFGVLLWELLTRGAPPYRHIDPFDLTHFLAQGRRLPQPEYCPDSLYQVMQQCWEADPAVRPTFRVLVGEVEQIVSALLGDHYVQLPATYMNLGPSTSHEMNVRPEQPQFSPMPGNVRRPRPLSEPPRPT
Nature of the experiment: sfRON cell mechanistic assay (HeLa), phosphorylated RON levels. The following applies: sfRON transfected HeLa cells, four hours incubation, at least duplicate experiments, read-out: sfRON mech IC50. On the procedure: The cellular activity of the compounds of the present invention against RON may be determined by the following procedure. HeLa cells were plated in Falcon 3072 96-well plates in growth media (DMEM, 10% FBS, 1% L-glutamine) at a density of 10000 cells/well and incubated at 37° C., 5% CO2 overnight. The following day, cells were transfected with 0.2 μg sfRON-pcDNA plasmid DNA with 0.5 μL Lipofectamine-2000 per well in the presence of 50 μL OPTI-MEM, incubated at 37° C., 5% CO2 overnight. Costar 3915 96-well assay plates were coated with rabbit Anti-RON antibody at 2.0 μg/mL, sealed, and incubated overnight at 4° C. On the third day, coated plates were washed with PBS and blocked with 3% BSA. For the sfRON transfected cells, one-tenth volume of a 10× concentration of compounds was added to the wells in a 6-point dilution series. The dilution series was composed of an initial 1:5 dilution of a 10 mM DMSO stock solution of compound in DMSO, followed by a 1:10 dilution in growth media, for a final DMSO concentration on cells of 0.5%. Control wells were treated with 0.5% DMSO. The typical range of dilution was 10 μM to 3 nM. Once compound was added to the cells, plates were incubated for four hours at 37° C., 5% CO2. Plates were then washed in PBS, and lysed in triton-based lysis buffer. Lysates were transferred to the blocked capture plates. The phosphorylated RON levels were measured by incubating with a Goat polyclonal antibody against phosphorylated RON ([pYpY1238/1239]) followed by an anti-Goat antibody conjugated to HRP. Signal was measured on a Wallac Victor plate reader with luminance. The DMSO signal of the control wells was defined as 100% and the percent of inhibition of phosphorylated RON was expressed as percent of control. IC50 values were determined from the percent of control data using a standard four-parameter model.
The IC50 values of exemplary compounds of the present invention determined in a sfRON cell mechanistic assay using the HeLa cell line according to the procedures described herein in at least duplicate experiments are abbreviated as follows and are shown in Table 3: A, IC50≦0.1 μM; B, 0.1 μM<IC50≦0.5 μM; C, 0.5 μM<IC50≦1 μM; D, IC50>1 μM; ND, not determined. The Example # of Table 3 corresponds to the compound example number as illustrated in the Examples section.

T1 sequence (P08581 25-1390): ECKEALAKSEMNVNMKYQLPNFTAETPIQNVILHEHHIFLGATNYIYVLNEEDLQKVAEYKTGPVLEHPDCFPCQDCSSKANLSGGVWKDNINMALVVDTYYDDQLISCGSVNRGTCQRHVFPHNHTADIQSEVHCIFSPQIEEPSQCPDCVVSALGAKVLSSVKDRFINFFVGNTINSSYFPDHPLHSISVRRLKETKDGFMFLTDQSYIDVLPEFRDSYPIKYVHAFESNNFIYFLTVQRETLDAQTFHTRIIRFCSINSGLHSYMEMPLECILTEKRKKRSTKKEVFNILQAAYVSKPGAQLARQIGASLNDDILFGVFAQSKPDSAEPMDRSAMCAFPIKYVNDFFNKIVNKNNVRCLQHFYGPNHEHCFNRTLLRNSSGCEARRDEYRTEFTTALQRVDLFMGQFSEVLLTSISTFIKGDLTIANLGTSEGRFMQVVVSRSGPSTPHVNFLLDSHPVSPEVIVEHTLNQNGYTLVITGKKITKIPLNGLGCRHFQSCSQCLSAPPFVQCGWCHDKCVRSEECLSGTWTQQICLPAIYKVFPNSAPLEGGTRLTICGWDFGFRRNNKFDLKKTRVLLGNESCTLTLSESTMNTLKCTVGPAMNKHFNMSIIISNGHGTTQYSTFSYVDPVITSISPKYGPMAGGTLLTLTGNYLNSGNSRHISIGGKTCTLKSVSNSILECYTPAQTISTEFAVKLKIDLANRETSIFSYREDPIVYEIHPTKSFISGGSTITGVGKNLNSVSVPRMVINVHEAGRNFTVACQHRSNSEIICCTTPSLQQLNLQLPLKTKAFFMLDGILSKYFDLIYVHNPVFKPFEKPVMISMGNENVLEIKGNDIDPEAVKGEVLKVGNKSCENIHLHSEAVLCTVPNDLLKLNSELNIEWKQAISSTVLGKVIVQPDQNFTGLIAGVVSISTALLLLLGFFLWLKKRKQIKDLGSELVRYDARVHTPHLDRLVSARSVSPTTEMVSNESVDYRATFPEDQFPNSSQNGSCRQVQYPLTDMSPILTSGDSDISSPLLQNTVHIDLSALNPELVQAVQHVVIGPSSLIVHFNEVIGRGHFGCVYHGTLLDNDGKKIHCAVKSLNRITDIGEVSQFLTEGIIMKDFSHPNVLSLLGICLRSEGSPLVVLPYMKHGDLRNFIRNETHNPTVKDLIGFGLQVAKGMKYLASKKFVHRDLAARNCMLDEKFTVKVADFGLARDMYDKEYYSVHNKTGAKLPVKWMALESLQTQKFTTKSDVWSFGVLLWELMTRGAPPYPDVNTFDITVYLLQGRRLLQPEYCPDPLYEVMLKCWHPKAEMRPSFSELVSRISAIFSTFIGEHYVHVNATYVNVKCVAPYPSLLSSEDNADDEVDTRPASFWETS

Usually IC50 stands for the point on the concentration scale where inhibition reaches its midpoint. Consider “7-[(2,6-dichloro-3-fluorophenyl)methoxymethyl]-2-(1-piperidin-4-yl-1H-pyrazol-4-yl)-5H-pyrrolo[2,3-b]pyrazine [Example 1]”, for which, at MET, the 50% inhibitory concentration (IC50) lay in the range of 0.1 to 0.5 µM. In the case of `COc1ccc(F)c(Cl)c1C(C)c1n[nH]c2ncc(-c3cnn([C@H]4CC[C@H](O)CC4)c3)cc12` (relative stereo) [Example 9, trans-4-(4-{3-[1-(2-Chloro-3-fluoro-6-methoxyphenyl)ethyl]-1H-pyrazolo[3,4-b]pyridin-5-yl}-1H-pyrazol-1-yl)cyclohexanol], the IC50 in the experiment on MKN45 cells was ≤ 0.1 µM. As to `C[C@H](c1c(Cl)ccc(F)c1Cl)n1ccc2ncc(-c3cnn(C)c3)cc21` [Example 4, 1-[(1R)-1-(2,6-dichloro-3-fluorophenyl)ethyl]-6-(1-methyl-1H-pyrazol-4-yl)-1H-pyrrolo[3,2-b]pyridine], the values for the concentration for half-maximal inhibition (IC50) in the experiment with MKN45 cells and at sfRON were 0.5 to 2 µM and > 1 µM, respectively.

Turning to `C[C@H](c1c(Cl)ccc(F)c1Cl)n1ccc2ncc(-c3cnn(C4CCNCC4)c3)cc21` [Example 5, 1-[(1R)-1-(2,6-Dichloro-3-fluorophenyl)ethyl]-6-[1-(piperidin-4-yl)-1H-pyrazol-4-yl]-1H-pyrrolo[3,2-b]pyridine], the concentration for half-maximal inhibition (IC50) in the experiment with MKN45 cells was ≤ 0.1 µM; on sfRON, 0.5 to 1 µM. For the molecule `C[C@H](c1c(Cl)ccc(F)c1Cl)n1ccc2ncc(-c3cnn(C4CCN(C=O)CC4)c3)cc21` [Example 6, 4-(4-{1-[(1R)-1-(2,6-Dichloro-3-fluorophenyl)ethyl]-1H-pyrrolo[3,2-b]pyridin-6-yl}-1H-pyrazol-1-yl)piperidine-1-carbaldehyde], the values for the IC50 in the experiment on MKN45 cells and at sfRON were 0.1 to 0.5 µM and 0.5 to 1 µM, respectively. In the case of `C[C@H](c1c(Cl)ccc(F)c1Cl)n1ccc2ncc(-c3cnn([C@H]4CC[C@H](O)CC4)c3)cc21` [Example 7, trans-4-(4-{1-[(1R)-1-(2,6-Dichloro-3-fluorophenyl)ethyl]-1H-pyrrolo[3,2-b]pyridin-6-yl}-1H-pyrazol-1-yl)cyclohexanol], the half-maximal inhibitory concentration (IC50) in the experiment with MKN45 cells and on sfRON was 0.1 to 0.5 µM each time. As for `C[C@H](c1c(Cl)ccc(F)c1Cl)n1ccc2ncc(-c3cnn(C[C@H](O)CO)c3)cc21` [Example 8, (2S)-3-(4-{1-[(1R)-1-(2,6-Dichloro-3-fluorophenyl)ethyl]-1H-pyrrolo[3,2-b]pyridin-6-yl}-1H-pyrazol-1-yl)propane-1,2-diol], the values for the IC50 with MKN45 cells and at sfRON were 0.1 to 0.5 µM and 0.5 to 1 µM, respectively. On the same counts, the results for `COc1ccc(F)c(Cl)c1[C@@H](C)c1n[nH]c2ncc(-c3cnn([C@H]4CC[C@H](O)CC4)c3)cc12` [Example 10, trans-4-(4-{3-[(1R)-1-(2-Chloro-3-fluoro-6-methoxyphenyl)ethyl]-1H-pyrazolo[3,4-b]pyridin-5-yl}-1H-pyrazol-1-yl)cyclohexanol] are ≤ 0.1 µM and 0.1 to 0.5 µM. `COc1ccc(F)c(Cl)c1[C@H](C)c1n[nH]c2ncc(-c3cnn([C@H]4CC[C@H](O)CC4)c3)cc12` [Example 11, trans-4-(4-{3-[(1S)-1-(2-Chloro-3-fluoro-6-methoxyphenyl)ethyl]-1H-pyrazolo[3,4-b]pyridin-5-yl}-1H-pyrazol-1-yl)cyclohexanol]: the IC50 in the experiment on MKN45 cells was > 2 µM. In the case of `COc1ccc(F)c(Cl)c1[C@@H](C)c1n[nH]c2ncc(-c3cnn(C4CCNCC4)c3)cc12` [Example 12, 3-[(1R)-1-(2-chloro-3-fluoro-6-methoxyphenyl)ethyl]-5-[1-(piperidin-4-yl)-1H-pyrazol-4-yl]-1H-pyrazolo[3,4-b]pyridine], in the experiment on MKN45 cells, the IC50 is ≤ 0.1 µM. For `COc1ccc(F)c(Cl)c1[C@@H](C)c1n[nH]c2ncc(-c3cnn(C[C@H](O)CO)c3)cc12` [Example 13, (2S)-3-(4-{3-[(1R)-1-(2-chloro-3-fluoro-6-methoxyphenyl)ethyl]-1H-pyrazolo[3,4-b]pyridin-5-yl}-1H-pyrazol-1-yl)propane-1,2-diol], in the experiment with MKN45 cells, the half-inhibitory concentration (IC50) is 0.1 to 0.5 µM. Turning to `COc1ccc(F)c(Cl)c1[C@@H](C)c1n[nH]c2ncc(-c3cnn(C)c3)cc12` [Example 14, 3-[(1R)-1-(2-chloro-3-fluoro-6-methoxyphenyl)ethyl]-5-(1-methyl-1H-pyrazol-4-yl)-1H-pyrazolo[3,4-b]pyridine], the IC50 in the experiment with MKN45 cells lay in the range of 0.1 to 0.5 µM. Regarding `CC(c1c(Cl)ccc(F)c1Cl)c1c[nH]c2nnc(-c3cnn(C)c3)cc12` (stereo not shown) [Example 15, 5-[1-(2,6-Dichloro-3-fluorophenyl)ethyl]-3-(1-methyl-1H-pyrazol-4-yl)-7H-pyrrolo[2,3-c]pyridazine], the IC50 in the experiment with MKN45 cells is > 2 µM.
